In PubChem BioAssay (NCI):
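Where inhibition never reached the appropriate level, the endpoint shown equals the highest concentration tested. Otherwise, values were interpolated linearly from a five-concentration, 48-hour dose response in 96-well plates. Abbreviation: GI50, concentration required for 50% inhibition of growth. TGI denotes the concentration required for complete inhibition of growth.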

What was measured:
Test in all cases: NCI-60 cell line screen, 48 h
HCT-116 colon = system: HCT-116 colon
COLO 205 colon = system: COLO 205 colon
SF-268 CNS = system: SF-268 CNS
TK-10 renal = system: TK-10 renal
EKVX NSCLC = system: EKVX NSCLC
MOLT-4 leukemia = system: MOLT-4 leukemia
NCI-H23 lung = system: NCI-H23 lung
HCC-2998 colon = system: HCC-2998 colon
NCI-H522 lung = system: NCI-H522 lung
MALME-3M melanoma = system: MALME-3M melanoma

## O=C(CN(/C=C/C(=O)C(F)(F)F)c1ccc(Cl)cc1)c1ccccc1
HCT-116 colon
  GI50: 11.6 µM
  TGI: 23.7 µM
COLO 205 colon
  GI50: 15.3 µM
  TGI: > 100 µM
SF-268 CNS
  GI50: > 100 µM
  TGI: > 100 µM
TK-10 renal
  GI50: 7.88 µM
  TGI: 37.2 µM
EKVX NSCLC
  GI50: 15.1 µM
  TGI: 34.1 µM
MOLT-4 leukemia
  GI50: 39.7 µM
  TGI: > 100 µM
NCI-H23 lung
  GI50: 8.75 µM
  TGI: 27.2 µM
HCC-2998 colon
  GI50: 7.93 µM
  TGI: 21.1 µM
NCI-H522 lung
  GI50: 6.52 µM
  TGI: 26.3 µM

## COc1ccc(C(=O)c2cc(OC)c(OC)c(OC)c2)cc1/C=C/C(=O)c1ccc(OC)c(OC)c1
HCT-116 colon
  GI50: 0.416 µM
  TGI: > 100 µM
COLO 205 colon
  GI50: 3.07 µM
  TGI: > 100 µM
SF-268 CNS
  GI50: 3 µM
  TGI: > 100 µM
TK-10 renal
  GI50: 4.16 µM
  TGI: > 100 µM
MOLT-4 leukemia
  GI50: 0.669 µM
  TGI: 17.4 µM
NCI-H23 lung
  GI50: 4.13 µM
  TGI: > 100 µM
HCC-2998 colon
  GI50: 4.14 µM
  TGI: > 100 µM

## Clc1cccc(Cl)c1C1CSc2ccccc2N=C1c1ccccc1 (stereo not given)
HCT-116 colon
  GI50: 1.71 µM
  TGI: 3.32 µM
MALME-3M melanoma
  GI50: 10.9 µM
  TGI: 27.8 µM
COLO 205 colon
  GI50: 12.3 µM
  TGI: 33.5 µM
SF-268 CNS
  GI50: 3.07 µM
  TGI: 11.2 µM
TK-10 renal
  GI50: 3.69 µM
  TGI: 9.27 µM
MOLT-4 leukemia
  GI50: 3.86 µM
  TGI: 37.6 µM
NCI-H23 lung
  GI50: 13.1 µM
  TGI: 31.4 µM
HCC-2998 colon
  GI50: 4.74 µM
  TGI: 15.5 µM
NCI-H522 lung
  GI50: 3.52 µM
  TGI: 14.5 µM

## O=C(c1ccccc1)[C@H]1Nc2ccc(Cl)cc2C2c3ccccc3CC21 (stereo not given in full)
HCT-116 colon
  TGI: > 100 µM
COLO 205 colon
  TGI: > 100 µM
SF-268 CNS
  TGI: > 100 µM
TK-10 renal
  TGI: > 100 µM
MOLT-4 leukemia
  TGI: > 100 µM
NCI-H23 lung
  TGI: > 100 µM
HCC-2998 colon
  TGI: 83.4 µM
NCI-H522 lung
  TGI: > 100 µM

## C=C(C)[C@@H]1CC[C@]2(C(=O)O)CC[C@]3(C)[C@H](CC[C@@H]4[C@@]5(C)C[C@@H](CC#Cc6ccc(C(F)(F)F)cc6)[C@H](O)C(C)(C)[C@@H]5CC[C@]43C)[C@@H]12
HCT-116 colon
  GI50: 2.34 µM
  TGI: > 100 µM
COLO 205 colon
  GI50: 3.72 µM
  TGI: > 100 µM
TK-10 renal
  GI50: 6.11 µM
  TGI: > 100 µM
EKVX NSCLC
  GI50: 3.82 µM
  TGI: > 100 µM
MOLT-4 leukemia
  GI50: 2.75 µM
  TGI: > 100 µM
HCC-2998 colon
  GI50: 8.48 µM
  TGI: > 100 µM

## CC1COc2c(N3CCN(C)CC3)c(F)cc3c(=O)c(C(=O)O)cn1c23 (stereo not given)
HCT-116 colon
  GI50: > 100 µM
  TGI: > 100 µM
MALME-3M melanoma
  GI50: > 100 µM
  TGI: > 100 µM
COLO 205 colon
  GI50: > 100 µM
  TGI: > 100 µM
SF-268 CNS
  GI50: > 100 µM
  TGI: > 100 µM
TK-10 renal
  GI50: > 100 µM
  TGI: > 100 µM
EKVX NSCLC
  GI50: > 100 µM
  TGI: > 100 µM
NCI-H23 lung
  GI50: > 100 µM
  TGI: > 100 µM
NCI-H522 lung
  GI50: > 100 µM
  TGI: > 100 µM

## Nc1nc2c(s1)CCc1c-2c(Br)n(Cc2ccccc2)c1Br
HCT-116 colon
  GI50: 2.53 µM
  TGI: 6.43 µM
MALME-3M melanoma
  GI50: 3.76 µM
  TGI: 15.4 µM
COLO 205 colon
  GI50: 2.53 µM
  TGI: 5.13 µM
SF-268 CNS
  GI50: 14.6 µM
  TGI: 39 µM
TK-10 renal
  GI50: 4.41 µM
  TGI: 14.9 µM
MOLT-4 leukemia
  GI50: 2.33 µM
  TGI: 26.7 µM
NCI-H23 lung
  GI50: 13.8 µM
  TGI: 40.8 µM
HCC-2998 colon
  GI50: 18 µM
  TGI: 33.7 µM
NCI-H522 lung
  GI50: 2.04 µM
  TGI: 4.63 µM

## Oc1ccc(O)c(-c2cn3ccsc3n2)c1
HCT-116 colon
  GI50: 5.68 µM
  TGI: 18.3 µM
COLO 205 colon
  GI50: 21.4 µM
  TGI: 48.2 µM
SF-268 CNS
  GI50: 14.4 µM
  TGI: > 100 µM
TK-10 renal
  GI50: 21.3 µM
  TGI: 47.9 µM
EKVX NSCLC
  GI50: 18.4 µM
  TGI: 35.8 µM
MOLT-4 leukemia
  GI50: 2.55 µM
  TGI: 5.42 µM
NCI-H23 lung
  GI50: 16.9 µM
  TGI: 64.3 µM
HCC-2998 colon
  GI50: 16.5 µM
  TGI: 31.1 µM
NCI-H522 lung
  GI50: 4.29 µM
  TGI: > 100 µM

## Cc1ccc(S(=O)(=O)N2CCSCCN(S(=O)(=O)c3ccc(C)cc3)CCN(S(=O)(=O)c3ccc(C)cc3)CC2)cc1
HCT-116 colon
  TGI: > 100 µM
COLO 205 colon
  TGI: > 100 µM
SF-268 CNS
  TGI: > 100 µM
EKVX NSCLC
  TGI: > 100 µM
MOLT-4 leukemia
  TGI: > 100 µM
NCI-H23 lung
  TGI: > 100 µM
HCC-2998 colon
  TGI: > 100 µM

## CC[P+](C)(C)c1ccccc1
MALME-3M melanoma
  TGI: > 100 µM
COLO 205 colon
  TGI: > 100 µM
SF-268 CNS
  TGI: > 100 µM
TK-10 renal
  TGI: > 100 µM
EKVX NSCLC
  TGI: > 100 µM
MOLT-4 leukemia
  TGI: > 100 µM
NCI-H23 lung
  TGI: > 100 µM
HCC-2998 colon
  TGI: > 100 µM

## CCCCCCCCOCC(O)COC(=O)CCCCCCC (stereo not given)
HCT-116 colon
  TGI: > 100 µM
MALME-3M melanoma
  TGI: > 100 µM
COLO 205 colon
  TGI: > 100 µM
SF-268 CNS
  TGI: > 100 µM
TK-10 renal
  TGI: > 100 µM
MOLT-4 leukemia
  TGI: > 100 µM
NCI-H23 lung
  TGI: > 100 µM
HCC-2998 colon
  TGI: > 100 µM

## NC(N)=N/N=C/c1c(-c2cc(Cl)sc2Cl)nc2sccn12
SF-268 CNS
  GI50: 1.26 µM
  TGI: 3.9 µM
TK-10 renal
  GI50: 1.29 µM
  TGI: 2.78 µM
EKVX NSCLC
  GI50: 3.72 µM
  TGI: 13.1 µM
MOLT-4 leukemia
  GI50: 0.912 µM
  TGI: 1.91 µM
NCI-H23 lung
  GI50: 7.5 µM
  TGI: 14.9 µM
HCC-2998 colon
  GI50: 0.854 µM
  TGI: 1.56 µM
NCI-H522 lung
  GI50: 1.76 µM
  TGI: > 50 µM

## C/C(=C\CCc1ccoc1)CC/C=C(\C)CCCN1CCOCC1
HCT-116 colon
  GI50: 2.27 µM
  TGI: 10.2 µM
COLO 205 colon
  GI50: 3.15 µM
  TGI: 12.4 µM
SF-268 CNS
  GI50: 7.03 µM
  TGI: 21.7 µM
TK-10 renal
  GI50: 11 µM
  TGI: 23.8 µM
MOLT-4 leukemia
  GI50: 4.2 µM
  TGI: 16.9 µM
NCI-H23 lung
  GI50: 6.03 µM
  TGI: 21 µM
HCC-2998 colon
  GI50: 10.9 µM
  TGI: 23.8 µM
NCI-H522 lung
  GI50: 10.9 µM
  TGI: 26.8 µM
